Reference: patent US9302999B2, “Substituted triazoles as herbicides” (E. I. DU PONT DE NEMOURS AND COMPANY, priority 2012, dated 2016)

How the values were obtained:
Type in all cases: in vivo
[1] = tested on: barnyardgrass (Echinochloa crus-galli); assay: Test A pre-/postemergence: barnyardgrass
Method in brief: (§1)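 Visual 0–100 injury ratings (0 no effect, 100 complete control) taken about ten days after treatment, relative to untreated controls. Preemergence treatment was a directed soil spray; postemergence plants were 2–10 cm tall at one- to two-leaf stage. Soil: loam/sand blend.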

[2] = tested on: ducksalad (Heteranthera limosa); assay: Test B flooded paddy: ducksalad; conditions: Flood; 125 g ai/ha; applied to paddy water at 2-leaf stage; visually evaluated after 13 to 15 days
Method in brief: (§2)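 Visual ratings on a 0–100 scale, where 0 means no effect and 100 means complete control, were assigned by comparison with controls 13 to 15 days after treatment. Compounds went into paddy water over 2-leaf plants flooded to 3 cm.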

[3] = tested on: pigweed (Amaranthus retroflexus); assay: Test A pre-/postemergence: pigweed
Method in brief: as §1

[4] = tested on: foxtail, giant (giant foxtail, Setaria faberii); assay: Test A pre-/postemergence: foxtail, giant
Method in brief: as §1

[5] = tested on: crabgrass, large (large crabgrass, Digitaria sanguinalis); assay: Test A pre-/postemergence: crabgrass, large
Method in brief: as §1

[6] = tested on: sedge, umbrella (small-flower umbrella sedge Cyperus difformis); assay: Test B flooded paddy: sedge, umbrella; conditions: Flood; 125 g ai/ha; applied to paddy water at 2-leaf stage; visually evaluated after 13 to 15 days
Method in brief: as §2

[7] = tested on: wheat (Triticum aestivum); assay: Test A pre-/postemergence: wheat
Method in brief: as §1

corn (Zea mays) = assay: Test A pre-/postemergence: corn
Method in brief: as §1

[8] = tested on: morningglory (Ipomoea spp.); assay: Test A pre-/postemergence: morningglory
Method in brief: as §1

[9] = tested on: barnyardgrass (Echinochloa crus-galli); assay: Test B flooded paddy: barnyardgrass; conditions: Flood; 125 g ai/ha; applied to paddy water at 2-leaf stage; visually evaluated after 13 to 15 days
Method in brief: as §2

rice (Oryza sativa) = assay: Test B flooded paddy: rice; conditions: Flood; 125 g ai/ha; applied to paddy water at 2-leaf stage; visually evaluated after 13 to 15 days
Method in brief: as §2

[10] = tested on: velvetleaf (Abutilon theophrasti); assay: Test A pre-/postemergence: velvetleaf
Method in brief: as §1

[11] = Postemergence, 125 g ai/ha, 0 to 100 scale, 0 is no effect, 100 is complete control
[12] = Postemergence, 500 g ai/ha, 0 to 100 scale, 0 is no effect, 100 is complete control
[13] = Preemergence, 125 g ai/ha, 0 to 100 scale where 0 is no effect and 100 is complete control
[14] = Preemergence, 500 g ai/ha, 0 to 100 scale (0 no effect, 100 complete control)

| SMILES | Plant response rating, Barnyardgrass [1, 11] | Barnyardgrass plant response rating [1, 12] | Plant response rating, Barnyardgrass [1, 13] | Plant response rating, Barnyardgrass [1, 14] | Plant response rating, Ducksalad (0 to 100 scale, 0 is no effect, 100 is complete control) [2] | Plant response rating, Pigweed [3, 11] | Pigweed plant response rating [3, 12] | Plant response rating, Pigweed [3, 13] | Plant response rating, Pigweed [3, 14] | Plant response rating, Foxtail, Giant [4, 11] | Foxtail, Giant plant response rating [4, 12] | Plant response rating, Foxtail, Giant [4, 13] | Plant response rating, Foxtail, Giant [4, 14] | Plant response rating, Crabgrass, Large [5, 11] | Crabgrass, Large plant response rating [5, 12] | Plant response rating, Crabgrass, Large [5, 13] | Plant response rating, Crabgrass, Large [5, 14] | Plant response rating, Sedge, Umbrella (0 to 100 scale, 0 is no effect, 100 is complete control) [6] | Plant response rating, Wheat [7, 11] | Wheat plant response rating [7, 12] | also measured |
| --- | --- | --- | --- | --- | --- | --- | --- | --- | --- | --- | --- | --- | --- | --- | --- | --- | --- | --- | --- | --- | --- |
| FC(F)(F)c1cccc(-n2nc(Oc3ccnc(C(F)(F)F)c3)c(C3CC3)n2)c1 [Compound 199] | 10 | 10 | 0 | 0 | 0 | 20 | 60 | 10 | 30 | 10 | 20 | 0 | 50 | 10 | 20 | 20 | 70 | 0 | 0 | 0 | Plant response rating, Wheat [7, 13]: 0; Plant response rating, Wheat [7, 14]: 0; Plant response rating, Corn (corn (Zea mays); [11]): 10; Corn plant response rating (corn (Zea mays); [12]): 20; Plant response rating, Corn (corn (Zea mays); [13]): 0; Plant response rating, Corn (corn (Zea mays); [14]): 0; Plant response rating, Morningglory [8, 11]: 10; Morningglory plant response rating [8, 12]: 20; Plant response rating, Morningglory [8, 13]: 0; Plant response rating, Morningglory [8, 14]: 0; Plant response rating, Barnyardgrass (0 to 100 scale, 0 is no effect, 100 is complete control) [9]: 0; Plant response rating, Rice (0 to 100 scale, 0 is no effect, 100 is complete control) (rice (Oryza sativa)): 0; Plant response rating, Velvetleaf [10, 11]: 10; Velvetleaf plant response rating [10, 12]: 10; Plant response rating, Velvetleaf [10, 13]: 0; Plant response rating, Velvetleaf [10, 14]: 0 |
| FC(F)(F)c1cccc(-n2nc(Oc3ccnc(C(F)(F)F)c3)c(C3CC3)n2)c1 [Compound 200] | 0 | 10 | 0 | 0 | 0 | 50 | 100 | 50 | 100 | 10 | 20 | 70 | 100 | 10 | 40 | 80 | 100 | 0 | 0 | 0 | Plant response rating, Wheat [7, 13]: 0; Plant response rating, Wheat [7, 14]: 0; Plant response rating, Corn (corn (Zea mays); [11]): 10; Corn plant response rating (corn (Zea mays); [12]): 20; Plant response rating, Corn (corn (Zea mays); [13]): 0; Plant response rating, Corn (corn (Zea mays); [14]): 0; Plant response rating, Morningglory [8, 11]: 10; Morningglory plant response rating [8, 12]: 30; Plant response rating, Morningglory [8, 13]: 0; Plant response rating, Morningglory [8, 14]: 10; Plant response rating, Barnyardgrass (0 to 100 scale, 0 is no effect, 100 is complete control) [9]: 0; Plant response rating, Rice (0 to 100 scale, 0 is no effect, 100 is complete control) (rice (Oryza sativa)): 0; Plant response rating, Velvetleaf [10, 11]: 10; Velvetleaf plant response rating [10, 12]: 40; Plant response rating, Velvetleaf [10, 13]: 0; Plant response rating, Velvetleaf [10, 14]: 0 |
